Measurements: the supplement of paper PMC9663587

Experiments:
Assay in all cases: GR value, 72 h; higher = faster growth (1 = untreated, <0 = killing);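 further: breast cancer and non-malignant breast epithelial lines, nine half-log doses, viable cells counted by Hoechst and LIVE/DEAD dye imaging versus time-zero plates and DMSO controls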
THZ1 = compound: CN(C)C/C=C/C(=O)Nc1ccc(C(=O)Nc2cccc(Nc3ncc(Cl)c(-c4c[nH]c5ccccc45)n3)c2)cc1 [THZ1]
LEE011/Ribociclib = compound: CN(C)C(=O)c1cc2cnc(Nc3ccc(N4CCNCC4)cn3)nc2n1C1CCCC1 [LEE011/Ribociclib]
YKL-5-124 = compound: C=CC(=O)Nc1ccc(C(=O)Nc2[nH]nc3c2CN(C(=O)N[C@H](CN(C)C)c2ccccc2)C3(C)C)cc1 [YKL-5-124]
[1] = compound: CCN1CCN(Cc2ccc(Nc3ncc(F)c(-c4cc(F)c5nc(C)n(C(C)C)c5c4)n3)nc2)CC1
Flavopiridol = compound: CN1CC[C@H](c2c(O)cc(O)c3c(=O)cc(-c4ccccc4Cl)oc23)[C@H](O)C1 [Flavopiridol]
THZ531 = compound: CN(C)C/C=C/C(=O)Nc1ccc(C(=O)N2CCC[C@@H](Nc3ncc(Cl)c(-c4c[nH]c5ccccc45)n3)C2)cc1 [THZ531]

Cell Line CAL851 has a GR value (THZ1; 0.0001 µM) of 1.01 GR, a GR value (THZ1; 0.0003162 µM) of 0.917 GR and a GR value (THZ1; 0.001 µM) of 0.835 GR. The GR value (THZ1; 0.003162 µM) was 0.727 GR, the GR value (THZ1; 0.01 µM) was 0.6 GR and the GR value (THZ1; 0.03162 µM) was 0.145 GR. It also gave a GR value (THZ1; 0.1 µM) of -0.146 GR, a GR value (THZ1; 0.3162 µM) of -0.225 GR and a GR value (THZ1; 1 µM) of -0.549 GR. For the same cell line, the GR value (LEE011/Ribociclib; 0.001 µM) was 1.09 GR, the GR value (LEE011/Ribociclib; 0.003162 µM) was 0.939 GR and the GR value (LEE011/Ribociclib; 0.01 µM) was 0.859 GR. For the same cell line, the GR value (LEE011/Ribociclib; 0.03162 µM) was 1.1 GR, the GR value (LEE011/Ribociclib; 0.1 µM) was 0.931 GR and the GR value (LEE011/Ribociclib; 0.3162 µM) was 0.775 GR. It also gave a GR value (LEE011/Ribociclib; 1 µM) of 0.874 GR, a GR value (LEE011/Ribociclib; 3.162 µM) of 1.04 GR and a GR value (LEE011/Ribociclib; 10 µM) of 1.11 GR. For the same cell line, the GR value (YKL-5-124; 0.001 µM) was 0.137 GR, the GR value (YKL-5-124; 0.003162 µM) was -0.128 GR and the GR value (YKL-5-124; 0.01 µM) was -0.137 GR. It also gave a GR value (YKL-5-124; 0.03162 µM) of -0.128 GR, a GR value (YKL-5-124; 0.1 µM) of -0.177 GR and a GR value (YKL-5-124; 0.3162 µM) of -0.275 GR. It also gave a GR value (YKL-5-124; 1 µM) of -0.172 GR, a GR value (YKL-5-124; 3.162 µM) of -0.25 GR and a GR value (YKL-5-124; 10 µM) of -0.561 GR. It also gave a GR value ([1]; 0.001 µM) of 1.09 GR, a GR value ([1]; 0.003162 µM) of 0.968 GR and a GR value ([1]; 0.01 µM) of 1.08 GR. It also gave a GR value ([1]; 0.03162 µM) of 1.05 GR, a GR value ([1]; 0.1 µM) of 1.12 GR and a GR value ([1]; 0.3162 µM) of 0.914 GR. For the same cell line, the GR value ([1]; 1 µM) was 0.617 GR, the GR value ([1]; 3.162 µM) was -0.0347 GR and the GR value ([1]; 10 µM) was -0.233 GR. It also gave a GR value (Flavopiridol; 0.0001 µM) of 1.04 GR, a GR value (Flavopiridol; 0.0003162 µM) of 1.01 GR and a GR value (Flavopiridol; 0.001 µM) of 0.961 GR. It also gave a GR value (Flavopiridol; 0.003162 µM) of 0.874 GR, a GR value (Flavopiridol; 0.01 µM) of 0.718 GR and a GR value (Flavopiridol; 0.03162 µM) of 0.906 GR. For the same cell line, the GR value (Flavopiridol; 0.1 µM) was 0.823 GR, the GR value (Flavopiridol; 0.3162 µM) was -0.005 GR and the GR value (Flavopiridol; 1 µM) was -0.159 GR. The GR value (THZ531; 0.0001 µM) was 1.12 GR, the GR value (THZ531; 0.0003162 µM) was 0.975 GR and the GR value (THZ531; 0.001 µM) was 0.997 GR. The GR value (THZ531; 0.003162 µM) was 0.889 GR, the GR value (THZ531; 0.01 µM) was 0.924 GR and the GR value (THZ531; 0.03162 µM) was 0.717 GR. For the same cell line, the GR value (THZ531; 0.1 µM) was 0.322 GR, the GR value (THZ531; 0.3162 µM) was 0.0707 GR and the GR value (THZ531; 1 µM) was -0.218 GR.
